# “And” between values parts separate entries of the source, which are not always exact repeats. Equal entries are not always repeated. Where two headings read alike, the source gives them in different places.
# Tests used:
# [1] = tested on: Plasmodium falciparum NF54; assay: Parasite lactate dehydrogenase (pLDH) assay over 72 h, CQ-sensitive strain; type: cell-based
# Protocol: (§1) The assay was performed in quadruplicate. The data were analyzed by nonlinear regression analysis using the GraphPad PRISM version 5.00 program to determine the IC50 of each compound.
# [2] = tested on: Plasmodium falciparum DD2; assay: Parasite lactate dehydrogenase (pLDH) assay over 72 h, CQ-resistant strain; type: cell-based; conditions: for IC50: Plasmodium falciparum, read-out: Plasmodium falciparum IC50 DD2
# Protocol: as §1
# [3] = tested on: Chinese Hamster Ovary (CHO) cell line, CHO-K1; assay: MTT cytotoxicity assay; type: cell-based
# Protocol: Cytotoxicity assays were conducted against the Chinese Hamster Ovary (CHO) cell line, ATCC CCL-61, strain CHO-K1. […] Cells were grown at 37°C in a humidified atmosphere of 5% CO2 and maintained by passage. Cells lines were seeded in 96-well microtitre plates at 10^4 cells/well in cell medium. […] DMSO (100 µL) was added to dissolve the MTT formazan precipitate, and the plates were gently agitated for 2 min to ensure homogeneity. Absorbance was measured at 540 nm using a Turner BioSystems, Inc. ModulusTM II Microplate Reader. The data were analyzed by nonlinear regression analysis using the GraphPad PRISM version 5.00 program to determine the IC50 of each compound.
# [4] = Kinetic solubility in PBS; type: physicochemical; conditions: phosphate buffer saline (PBS), aqueous buffer, kinetic from dmso stock
# Protocol: . […] The aqueous mobile phase was water with 0.1% formic acid and the organic mobile phase was acetonitrile with 0.1% formic acid. The gradient method has a flow rate of 0.8 mL/min, with a total run time of 2.5 min starting at 5% organic and increasing to 95% at 1.4 min, holding for 40 s before returning to 5% to re-equilibrate the column. • ii. Lipophilicity. Stock solutions (10 mM) of compounds were diluted to 100 μM in 96-well deep-well plate containing 300 µL of 1-octanol and 300 µL of phosphate buffer at pH 7.4. The plate was agitated on an orbital shaker at 750 rpm for 2 h. The organic and buffer layers of each well were transferred separately to a new analysis plate. The samples were analysed with the HPLC diode array detection as described for kinetic solubility. Samples from both layers were analysed to determine LogD7.4 values. • iii. Passive permeability. A parallel artificial membrane permeation assay (PAMPA) was used to assess the passive permeability of compounds with a 96-well MultiScreen filter plate ([…] pore size, Millipore). The filter plate was precoated with 5% hexadecane in hexane. Stock solutions of compounds were diluted to 1 mM in a donor buffer (pH 6.5). Lucifer yellow was added to the apical wells of the precoated MultiScreen plate containing compound donor solution. The donor buffer solutions were spiked with each test compound (1 mM). The acceptor-buffer solution was prepared by adding 10 μL DMSO to 990 μL acceptor buffer (pH 7.4) and 250 μL were added to the basolateral (acceptor) wells. The donor plate was carefully inserted into the acceptor plate and incubated at room temperature for 4 h. After the incubation period, 50 μL of samples from the acceptor plate were transferred to a round bottom 96-well plate, together with 30 μL of donor buffer for matrix matching. Theoretical equilibrium samples for each test compound were prepared by adding 150 μL of donor solutions to 250 μL acceptor solutions and left at room temperature. These theoretical equilibrium samples represent complete transfer of the compound into the donor well. For the theoretical equilibrium samples, 80 μL were added to the analysis plate. Lastly, 160 μL of the internal standard carbamazepine (0.1 μM) was added to all acceptor and equilibrium samples. A portion of the sample containing Lucifer yellow was analyzed on a BioRad iMarkTM Microplate Absorbance Reader (BioRad, Hercules, CA, United States; […]. Samples were analysed using reverse phase Gemini NX-C18 column (5 μm, 2.1 mm × 50 mm) with a Shimadzu HPLC coupled with an AB Sciex 3200 Q TRAP MS). […]. Plasma stability. Stock solutions of compounds in DMSO (10 mM) were used to spike pooled human plasma. 90 μL of each sample was transferred in duplicate to 6 different wells of a 96-deep well plate. An aliquot of each sample was immediately quenched with ice cold acetonitrile containing the internal standard carbamazepine (0.1 µM), after which the plate was incubated in a water bath (37°C for […]). Aliquots of samples were removed at 5, 15, 40, 60 and 180 min and quenched with ice cold acetonitrile. After samples of the final time point were precipitated, the supernatant was transferred to a round bottom 96-well plate for analysis by LC-MS/MS using a reverse phase Gemini NX-C18 column (5 μm, 2.1 mm × 50 mm) with a Shimadzu HPLC coupled with an AB Sciex 3200 Q TRAP MS) operated at unit resolution in the multiple reaction monitoring (MRM) mode. The aqueous phase consisted of water with 0.1% formic acid and the organic mobile phase consisted of methanol and acetonitrile (1:1, (v/v)) with 0.1% formic acid. […]. The peak area ratios were used to calculate the amount of parent compound remaining and t1/2 in plasma, using the following equations.
# [5] = Plasma stability in pooled human plasma; type: in vitro ADME; conditions: 37°C
# Protocol: . […] The aqueous mobile phase was water with 0.1% formic acid and the organic mobile phase was acetonitrile with 0.1% formic acid. The gradient method has a flow rate of 0.8 mL/min, with a total run time of 2.5 min starting at 5% organic and increasing to 95% at 1.4 min, holding for 40 s before returning to 5% to re-equilibrate the column. • ii. Lipophilicity. Stock solutions (10 mM) of compounds were diluted to 100 μM in 96-well deep-well plate containing 300 µL of 1-octanol and 300 µL of phosphate buffer at pH 7.4. The plate was agitated on an orbital shaker at 750 rpm for 2 h. The organic and buffer layers of each well were transferred separately to a new analysis plate. The samples were analysed with the HPLC diode array detection as described for kinetic solubility. Samples from both layers were analysed to determine LogD7.4 values. • iii. Passive permeability. A parallel artificial membrane permeation assay (PAMPA) was used to assess the passive permeability of compounds with a 96-well MultiScreen filter plate ([…] pore size, Millipore). The filter plate was precoated with 5% hexadecane in hexane. Stock solutions of compounds were diluted to 1 mM in a donor buffer (pH 6.5). Lucifer yellow was added to the apical wells of the precoated MultiScreen plate containing compound donor solution. The donor buffer solutions were spiked with each test compound (1 mM). The acceptor-buffer solution was prepared by adding 10 μL DMSO to 990 μL acceptor buffer (pH 7.4) and 250 μL were added to the basolateral (acceptor) wells. The donor plate was carefully inserted into the acceptor plate and incubated at room temperature for 4 h. After the incubation period, 50 μL of samples from the acceptor plate were transferred to a round bottom 96-well plate, together with 30 μL of donor buffer for matrix matching. Theoretical equilibrium samples for each test compound were prepared by adding 150 μL of donor solutions to 250 μL acceptor solutions and left at room temperature. These theoretical equilibrium samples represent complete transfer of the compound into the donor well. For the theoretical equilibrium samples, 80 μL were added to the analysis plate. Lastly, 160 μL of the internal standard carbamazepine (0.1 μM) was added to all acceptor and equilibrium samples. A portion of the sample containing Lucifer yellow was analyzed on a BioRad iMarkTM Microplate Absorbance Reader (BioRad, Hercules, CA, United States; […]. Samples were analysed using reverse phase Gemini NX-C18 column (5 μm, 2.1 mm × 50 mm) with a Shimadzu HPLC coupled with an AB Sciex 3200 Q TRAP MS). […]. Plasma stability. Stock solutions of compounds in DMSO (10 mM) were used to spike pooled human plasma. […]
# . Plasma protein binding was determined in pooled human plasma using an ultracentrifugation method. […]
# [6] = Metabolic stability in mouse liver microsomes; type: in vitro ADME
# Protocol: (§2) Eq. 4 Predicted t1/2 t1/2=−0.693/λ (4) Where λ is the slope of the Ln % parent remaining vs. time curve. • v. Plasma protein binding. Plasma protein binding was determined in pooled human plasma using an ultracentrifugation method. Stock solutions of test compounds (10 mM) were diluted in phosphate buffer and spiked into plasma in deep well 96-well plates (10 µM). An aliquot of each compound was immediately precipitated with ice cold acetonitrile containing the internal standard carbamazepine (0.1 μM). These served as total concentration samples. After incubation in a water bath at 37°C for 1 h, the samples were transferred to ultracentrifuge tubes in duplicate and centrifuged for 4 h at 37°C and 30,000 g (Optima L-80XP, Beckman). Following centrifugation, the supernatant was transferred to the plate containing the total concentration samples and precipitated with ice cold acetonitrile containing the internal standard. Analyte concentrations of all compounds were determined via LC-MS/MS (reverse phase Gemini NX-C18 column and Shimadzu HPLC coupled with an AB Sciex 3200 Q TRAP MS) as described above. • vi. Metabolic stability. A 5-point metabolic stability assay in human and mouse liver microsomes were performed in duplicate in 96-well plates. […] The cofactor NADPH was added, and the reactions were subsequently stopped at time points 5, 10, 30 and 60 min by removal of an aliquot and quenching with ice cold acetonitrile containing the internal standard. The supernatant of all samples was analysed via LC-MS/MS analysis (reverse phase Gemini NX-C18 column and Shimadzu HPLC and AB Sciex 3200 Q TRAP MS) as described above.
# [7] = Metabolic stability in human liver microsomes; type: in vitro ADME
# Protocol: as §2
# [8] = In vivo PK, iv and oral, whole blood; parameters: species or system C57BL/6 mice
# Protocol: • i. Animals. […] Food and water were available ad libitum. Mice were acclimatised to the experimental environment for 4-5 days prior to initiating the experiments. • ii. Oral drug administration. AD01 and PhX6 were prepared in 100% Millipore […] prepared in an aqueous suspension of 0.5% HPMC (w/v) containing 0.2% Tween 80 (v/v). The weighed compounds were sonicated and vortexed to ensure all solutions were homogenous. […] The total volume per administration was 200 μL. Blood samples were collected post-dose in lithium heparin microvials via tail bleeding at predetermined intervals at 0.5, 1, 3, 5, 8, 10 and 24 h. Samples were gently vortexed and stored at -80°C until analysis. • iii. Intravenous administration. AD01 and PhX6 were prepared in 100% Millipore […] prepared in an organic vehicle consisting of 10% N,N-dimethylacetamide, 30% polyethylene glycol 400 (PEG), 50% polypropylene glycol (PPG) and 10% ethanol (1:3:5:1, v/v) for intravenous (iv) dosing at 10 mg/kg. The total volume of administration was 80 μL. Blood samples were collected post-dose in lithium heparin microvials via tail bleeding at predetermined intervals at 0.16, 0.5, 1, 3, 5, 8, 10 and 24 h. Samples were gently vortexed and stored at -80°C until analysis. • iv. Sample processing and analysis. […] The mixture was vortexed vigorously for 1 min, and 5 μL of the supernatant were injected onto the analytical column following centrifugation (5590 g for 5 min). A Shimadzu HPLC and reverse phase Gemini NX-C18 column coupled to an AB Sciex 3200 Q TRAP MS was operated at unit resolution in the multiple reaction monitoring (MRM) mode as described above. […] Data analysis. Drug concentration versus time plots for each compound were used to determine maximal drug concentration C max, time T max to reach C max, elimination half-life t 1/2 and the area under the concentration-time curve from time zero to infinity, AUC0-inf. From these values the PK parameters clearance CL, volume of distribution Vd and oral bioavailability BA were determined using the non-compartmental analysis Microsoft Excel Add-In PKSolver ([Zhang et al., 2010]).
# [9] = C57BL/6, mouse, 10 mg/kg, mice, intravenous, whole blood
# [10] = C57BL/6, mouse, whole blood, po, 5 mg/kg
compound,measurement,setting,value
"C[C@H]1[C@H](N2CCS(=O)(=O)CC2)O[C@@H]2O[C@@]3(C)CC[C@H]4[C@H](C)CC[C@@H]1[C@@]24OO3 [AMS, artemisone]",IC50,"[1]; CQ-sensitive NF54, pLDH 72 h, n = 3, read-out: Plasmodium falciparum IC50 NF54",4.5 ± 2.42 nM
same,Resistance index,"[2]; IC50 (resistant strain)/IC50 (sensitive strain), DD2/NF54",1.2
same,IC50,"[2]; CQ-resistant DD2, pLDH 72 h, n = 3",5.48 ± 2.03 nM
same,IC50,"[3]; Cricetulus griseus, CHO cells, MTT",> 249000 nM
same,Selectivity index CHO/resistant Pf strain,"[3]; cytotoxicity IC50/activity IC50, CHO/DD2",">1,000"
same,Selectivity index CHO/sensitive Pf strain,"[3]; cytotoxicity IC50/activity IC50, CHO/NF54",">1,000"
CCNC(=S)NN=C(c1ccccn1)c1ccccn1 [DpNEt],solubility at 2 h,"[4]; PBS pH 2, read-out: Predicted solubility pH 2",> 150 µM
same,solubility at 2 h,"[4]; PBS pH 6.5, read-out: Predicted solubility pH 6.5",> 150 µM
same,solubility at 2 h,"[4]; PBS pH 7.4, read-out: Predicted solubility pH 7.4",> 150 µM
same,half-life,[5],> 2.5 h
same,CLint scaled,[6],22.3 mL/min/kg
same,CLint scaled,[7],4 mL/min/kg
same,Vd,[8]; [9],1 ± 0.16 L/kg
same,clearance,[8]; [9],10.2 ± 0.93 mL/min/kg
same,half-life,"[8]; C57BL/6, mouse, whole blood, iv, 10 mg/kg, mice, intravenous, whole blood, read-out: t1/2 (converted)",1.2 h
same,Cmax,[8]; [10],6.32 ± 1.15 µM
same,Tmax,[8]; [10],0.7 ± 0.12 h
same,AUC0-∞,"[8]; mice, intravenous, whole blood",1795 ± 198 µmol·min/L
same,t1/2,"[8]; mice, intravenous, whole blood",1.12 ± 0.13 h
same,BA,"[8]; mice, oral bioavailability",8% and 8 ± 2%
same,AUC0-∞,"[8]; mice, oral gavage: AD01 4.6, PhX6 4.5, DpNEt 5 mg/kg",550 ± 148 µmol·min/L
"CCN(CC)CCCC(C)Nc1ccnc2cc(Cl)ccc12 (centres unmarked) [CQ, chloroquine, reference compound]",IC50,"[1]; NF54, 72 h, read-out: Plasmodium falciparum IC50 NF54",9.9 ± 0.4 nM
same,IC50,"[2]; DD2, 72 h",142 ± 16.8 nM

# Reference: PMC10800708, “Efficacies and ADME properties of redox active methylene blue and phenoxazine analogues for use in new antimalarial triple drug combinations with amino-artemisinins” (Frontiers in Pharmacology, 2024)
